This assay has as its target Bmt5 (Saccharomyces cerevisiae, UniProt P40493). The assay is described as follows: biochemical.

What is called Kd is the constant that tells how readily two partners part at equilibrium.

Sequence of Bmt5 (P40493 whole entry): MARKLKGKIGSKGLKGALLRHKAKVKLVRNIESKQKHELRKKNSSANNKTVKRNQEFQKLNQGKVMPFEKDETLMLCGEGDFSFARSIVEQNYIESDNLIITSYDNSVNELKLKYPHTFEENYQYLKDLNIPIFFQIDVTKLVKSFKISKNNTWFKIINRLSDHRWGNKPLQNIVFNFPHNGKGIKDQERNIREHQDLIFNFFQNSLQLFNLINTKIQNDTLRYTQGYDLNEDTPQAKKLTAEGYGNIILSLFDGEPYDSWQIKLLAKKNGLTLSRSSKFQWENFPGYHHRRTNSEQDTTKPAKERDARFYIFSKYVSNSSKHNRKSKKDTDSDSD

`C[S+](CC[C@H](N)C(=O)O)C[C@H]1O[C@@H](n2cnc3c(N)ncnc32)[C@H](O)[C@@H]1O` (stereo partly shown) [SAM] displayed a Kd of 109 ± 10.8 µM.

Values taken from publication PMC3950682 (Nucleic Acids Research, 2013).
